The text below walks through data of patent publication US20130123360A1, “METHODS AND USES RELATING TO THE IDENTIFICATION OF COMPOUND ASSOCIATED WITH BACTERIAL INFECTION” (SANOFI-AVENTIS DEUTSCHLAND GMBH, priority 2010, published 2013).

Test [1] concerns the target T1, PqsD protein (Pseudomonas aeruginosa, UniProt P20582).
T1 construct: The 1-kb NdeI-EcoRI fragment of pqsD was cloned between the NdeI and EcoRI sites of pET28b(+), resulting in pET28b(+)-pqsD; fused on or other part: N-terminal His tag from pET28b(+)
T1 sequence (P20582 1-337): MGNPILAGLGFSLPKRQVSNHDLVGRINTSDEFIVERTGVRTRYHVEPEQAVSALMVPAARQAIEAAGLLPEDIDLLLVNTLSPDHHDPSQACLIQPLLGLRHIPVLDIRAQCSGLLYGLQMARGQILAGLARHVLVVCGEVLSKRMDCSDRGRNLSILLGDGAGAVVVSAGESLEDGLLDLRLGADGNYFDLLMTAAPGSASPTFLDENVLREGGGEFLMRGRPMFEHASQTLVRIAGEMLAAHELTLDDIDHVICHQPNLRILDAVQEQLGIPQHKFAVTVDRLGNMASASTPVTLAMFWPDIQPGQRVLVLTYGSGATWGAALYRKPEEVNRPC
Briefly: Inhibition of HHQ formation by PqsD in vitro (HPLC-MS2 quantification of HHQ). Type of test: biochemical, Pseudomonas aeruginosa UCBPP-PA14. The following applies: 0.2 mM anthraniloyl-CoA, 0.35 mM 3-oxodecanoic acid, 1 μg PqsD, 2 min preincubation, 2 min at 37° C., pH 8.0. On the procedure:
Experimental protocol. With the PqsD assay established so far, it is possible to screen for possible inhibitors of HHQ formation by PqsD in vitro. For this purpose the concentrations of anthraniloyl-CoA, 3-oxodecanoic acid and PqsD protein are assigned to fixed values. At first PqsD, anthraniloyl-CoA and the compound to be tested are preincubated for a fixed period. The putative inhibitor is added to the assay in increasing concentrations. The reaction is started by the addition of 3-oxodecanoic acid and incubated for a fixed period. Then the reaction is quenched by the addition of methanol to a final concentration of 50 percent. For each reaction the HHQ formation is quantified by HPLC/MS^2. By comparing the amounts of HHQ formed in presence of the different concentrations of the inhibitor to that of a control reaction without inhibitor, it can be calculated for the inhibitor concentration at which HHQ formation is 50 percent of the control reaction (IC50). […]
HHQ quantification by HPLC-MS^2—HPLC-MS analysis was carried out using a HPLC system from the Agilent 1100 series coupled to a Brucker Daltonics HCTultra ESI-MS iontrap instrument operated in positive ionization mode. […] For HHQ quantification the signal intensities of fragment ion 159.0 Da created by fragmentation of 244.0 Da were used. […]

Test [2] concerns the target T1, PqsD protein. Briefly: Determination of kinetic parameters of PqsD (HHQ formation, HPLC-MS2). Format: biochemical, Pseudomonas aeruginosa UCBPP-PA14. On the procedure: Experimental protocol. […] The carbon-carbon bond formation between carbons 3 and 4 of the quinoline ring is likely to be catalyzed by one of the proteins PqsB, PqsC or PqsD which show all homology to the β-ketoacyl-acyl carrier protein synthase III family. To test of whether PqsD is necessary for HHQ formation, we purified recombinant PqsD protein and tried to readjust HHQ formation in vitro. The heterologous protein was incubated with anthraniloyl-CoA and 3-oxodecanoic acid and the reaction was analyzed by HPLC-MS.
HHQ quantification by HPLC-MS^2—HPLC-MS analysis was carried out using a HPLC system from the Agilent 1100 series coupled to a Brucker Daltonics HCTultra ESI-MS iontrap instrument operated in positive ionization mode. For separation a Onyx Monolythic C18 column (50×2 mm, Phenomenex) was used. […] For HHQ quantification the signal intensities of fragment ion 159.0 Da created by fragmentation of 244.0 Da were used. For creation of the standard curve HHQ standards containing 1, 5, 10, 20, 50, 100 and 200 ng ml^−1 were measured.
The reaction mixtures contained 50 mM Tris-HCl, pH 8.0, PqsD protein (1 μg), 0.2 mM anthraniloyl-CoA and 3-oxodecanoic acid ranging in concentration from 0.02 to 2 mM in a total volume of 50 μl. […] HHQ was quantified by HPLC by injecting 10 μl of the reaction mixture. […]

Where “and” joins values, the source holds several entries; their conditions need not be identical. Equal entries are not always repeated. Where two headings read alike, the source gives them in different places.

As to `O=C(Nc1ccccc1C(=O)O)c1ccc(-c2ccccc2)c(Oc2ccccc2)c1` [2-[(2-phenoxybiphenyl-4-carbonyl)amino]benzoic acid], the IC50 at PqsD protein [1] was 35 µM and ~35 µM. For the molecule `CCCCCCCC(=O)CC(=O)O` [3-oxodecanoic acid], the Km on PqsD protein [2] (fixed anthraniloyl-CoA 200 μM, varied 3-oxodecanoic acid 0.02 to 2 mM, 37° C., pH 8.0, triplicates, read-out: Km value of PqsD for 3-oxodecanoic acid) was 562 ± 91 µM; on PqsD protein [2] (fixed anthraniloyl-CoA, varied 3-oxodecanoic acid concentrations, FIG. 4, read-out: Km value of PqsD (figure legend)), 560 µM.

One may read the IC50 as the concentration that gives 50% inhibition. High values mean weaker potency in that assay, low ones greater potency in that assay. Broadly, the Km is the concentration of substrate that gives half-maximal velocity.
